Assay results from ChEMBL document CHEMBL1201862, “PubChem BioAssay data set” (2004).
Calls of active or inactive are those of the source.

What was measured:
[1] = cells; assay type: functional
[2] = molecular target: T1, Corticotropin-releasing factor receptor 2/Corticotropin-releasing factor-binding protein (Homo sapiens, UniProt P24387+Q13324); assay: Dose Response confirmation of uHTS hits for small molecule antagonists of the CRF-binding protein and CRF-R2 receptor complex.; assay type: functional; settings: read-out: IC50_Mean
T1 sequence (Q13324 whole entry): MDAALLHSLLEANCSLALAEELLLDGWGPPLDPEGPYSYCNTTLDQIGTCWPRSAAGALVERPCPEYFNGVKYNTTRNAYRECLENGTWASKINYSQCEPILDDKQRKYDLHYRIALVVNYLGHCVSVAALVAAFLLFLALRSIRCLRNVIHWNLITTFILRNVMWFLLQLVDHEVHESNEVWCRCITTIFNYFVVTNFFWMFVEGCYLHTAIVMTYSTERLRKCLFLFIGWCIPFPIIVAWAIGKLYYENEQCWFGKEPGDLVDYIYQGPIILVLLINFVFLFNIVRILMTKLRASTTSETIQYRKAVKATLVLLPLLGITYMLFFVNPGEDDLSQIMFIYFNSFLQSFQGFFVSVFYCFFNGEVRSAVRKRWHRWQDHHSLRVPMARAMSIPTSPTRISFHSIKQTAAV
T1 sequence (P24387 whole entry): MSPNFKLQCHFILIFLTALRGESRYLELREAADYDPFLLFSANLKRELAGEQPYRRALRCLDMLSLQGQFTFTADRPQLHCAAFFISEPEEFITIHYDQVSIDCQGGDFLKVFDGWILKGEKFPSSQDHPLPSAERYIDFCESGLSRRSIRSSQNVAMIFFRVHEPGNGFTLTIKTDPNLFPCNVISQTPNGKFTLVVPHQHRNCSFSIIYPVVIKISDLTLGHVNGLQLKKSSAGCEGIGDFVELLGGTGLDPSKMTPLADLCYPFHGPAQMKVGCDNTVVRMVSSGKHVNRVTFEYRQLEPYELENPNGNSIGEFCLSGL

[3] = molecular target: T1, Corticotropin-releasing factor receptor 2/Corticotropin-releasing factor-binding protein; assay: activators of CRF receptor 2 with binding protein – uHTS hits, confirmation (AID 602473); assay type: functional; settings: read-out: EC50_Mean
[4] = molecular target: T2, Rac GTPase-activating protein 1 (Homo sapiens, UniProt Q9H0H5); assay: blockers of MgcRacGAP-driven Rac1 GTP hydrolysis – biochemical, ADP Hunter fluorescence, primary and confirmatory, confirmation (AID 624330); assay type: functional
T2 sequence (Q9H0H5 whole entry): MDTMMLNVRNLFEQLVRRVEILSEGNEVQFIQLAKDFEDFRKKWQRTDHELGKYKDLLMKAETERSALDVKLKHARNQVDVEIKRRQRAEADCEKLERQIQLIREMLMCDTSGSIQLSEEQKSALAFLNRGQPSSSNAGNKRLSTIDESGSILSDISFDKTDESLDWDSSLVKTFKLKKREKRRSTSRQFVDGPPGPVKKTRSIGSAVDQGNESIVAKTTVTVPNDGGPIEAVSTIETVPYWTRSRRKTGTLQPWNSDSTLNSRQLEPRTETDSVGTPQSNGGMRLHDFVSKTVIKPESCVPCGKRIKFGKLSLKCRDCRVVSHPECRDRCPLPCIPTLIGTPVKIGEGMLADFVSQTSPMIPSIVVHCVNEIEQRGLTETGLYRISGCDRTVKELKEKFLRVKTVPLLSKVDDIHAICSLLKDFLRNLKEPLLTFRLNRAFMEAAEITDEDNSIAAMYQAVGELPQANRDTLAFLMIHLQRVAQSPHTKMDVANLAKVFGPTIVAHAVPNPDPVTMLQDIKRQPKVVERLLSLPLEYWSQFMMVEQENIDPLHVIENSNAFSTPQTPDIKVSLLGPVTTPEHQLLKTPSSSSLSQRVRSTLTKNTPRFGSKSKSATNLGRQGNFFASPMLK

[5] = viability of PTEN-deleted HCT116 cells – cell-based, HCT116 PTEN knockout, dose response (AID 1047); assay type: functional;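 further: HCT116 colon tumor cells with PTEN knocked out; cells exposed to compound for 60 hours before readout; potency for loss of cell viability measured by luminescence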
[6] = viability of HCT116 lacking mutant beta-catenin – cell-based, human colon tumor, dose response (AID 1045); assay type: functional;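 further: HCT116 colon tumor cells with beta catenin knocked out; cells exposed to compound for 60 hours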
[7] = molecular target: T3, Cytochrome P450 1A2 (Homo sapiens, UniProt P05177);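 further: PubChem cytochrome P450 panel assay, CYP1A2 panel member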
T3 sequence (P05177 whole entry): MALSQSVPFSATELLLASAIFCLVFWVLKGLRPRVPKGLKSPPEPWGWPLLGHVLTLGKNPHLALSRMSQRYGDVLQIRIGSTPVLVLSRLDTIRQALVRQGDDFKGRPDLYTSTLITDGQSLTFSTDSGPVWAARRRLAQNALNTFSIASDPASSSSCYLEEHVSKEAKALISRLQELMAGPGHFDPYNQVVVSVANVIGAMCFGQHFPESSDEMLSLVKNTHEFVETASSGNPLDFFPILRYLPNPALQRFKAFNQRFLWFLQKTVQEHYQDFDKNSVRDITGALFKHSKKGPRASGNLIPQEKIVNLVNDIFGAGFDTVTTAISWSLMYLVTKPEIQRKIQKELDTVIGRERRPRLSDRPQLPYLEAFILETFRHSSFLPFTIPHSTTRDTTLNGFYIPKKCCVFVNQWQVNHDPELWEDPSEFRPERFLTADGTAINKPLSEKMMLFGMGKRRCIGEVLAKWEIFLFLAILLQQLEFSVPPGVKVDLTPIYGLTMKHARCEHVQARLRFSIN

[8] = tested on: INS1; assay: INS-1E survival protection against cytokine death – cell-based, luminescence, retest, dose response (AID 449756); assay type: functional; settings: Rattus norvegicus;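 further: cell death triggered by IL-1 beta plus TNF-alpha plus IFN-gamma mixture; protective hits raise ATP signal compared with cytokine alone wells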
[9] = molecular target: T4, Heat shock factor protein 1 (Mus musculus, UniProt P38532); assay: decrease of HSF1-responsive luciferase luminescence – cell-based, NIH3T3, dose retest, confirmation (AID 2382); assay type: functional;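 further: NIH3T3 fibroblasts with HSF1-driven luciferase reporter stressed by proteasome inhibitor MG132; luminescence from HSF1-driven luciferase expression after 8 hours of MG132 stress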
T4 sequence (P38532 whole entry): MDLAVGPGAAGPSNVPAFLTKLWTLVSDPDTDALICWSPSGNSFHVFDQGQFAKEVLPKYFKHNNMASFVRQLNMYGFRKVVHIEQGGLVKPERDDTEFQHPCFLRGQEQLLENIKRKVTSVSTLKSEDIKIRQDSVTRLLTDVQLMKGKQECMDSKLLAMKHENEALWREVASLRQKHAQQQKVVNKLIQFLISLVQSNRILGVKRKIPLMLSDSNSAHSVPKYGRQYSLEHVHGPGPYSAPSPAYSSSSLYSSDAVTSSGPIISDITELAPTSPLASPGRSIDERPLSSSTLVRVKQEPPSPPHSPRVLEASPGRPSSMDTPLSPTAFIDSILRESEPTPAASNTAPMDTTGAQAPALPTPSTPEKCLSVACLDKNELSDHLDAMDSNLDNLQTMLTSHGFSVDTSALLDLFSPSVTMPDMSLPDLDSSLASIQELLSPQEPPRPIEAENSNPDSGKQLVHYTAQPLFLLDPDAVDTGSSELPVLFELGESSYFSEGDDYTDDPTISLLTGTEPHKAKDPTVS

[10] = molecular target: Cytochrome P450 2C19 (Homo sapiens, UniProt P33261); assay: Cytochrome panel assay with activity outcomes. Panel member name: p450-cyp2c19 Compounds with AC50 equal or less than 10 uM are considered active; assay type: functional; settings: read-out: AC50
[11] = molecular target: Cytochrome P450 2C9 (Homo sapiens, UniProt P11712)
[12] = molecular target: T4, Heat shock factor protein 1; assay: enhancement of HSF1-driven luciferase signal – cell-based, NIH3T3, luminescence, dose retest, confirmation (AID 435004); assay type: functional;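 further: stress induced by proteasome inhibitor MG132 added 30 min after compound; luciferase reporter driven by HSF1 response element in NIH3T3 cells; actives raise luminescence as potentiators of the MG132 stress response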

Cytochrome P450 2C9, sequence (P11712 whole entry): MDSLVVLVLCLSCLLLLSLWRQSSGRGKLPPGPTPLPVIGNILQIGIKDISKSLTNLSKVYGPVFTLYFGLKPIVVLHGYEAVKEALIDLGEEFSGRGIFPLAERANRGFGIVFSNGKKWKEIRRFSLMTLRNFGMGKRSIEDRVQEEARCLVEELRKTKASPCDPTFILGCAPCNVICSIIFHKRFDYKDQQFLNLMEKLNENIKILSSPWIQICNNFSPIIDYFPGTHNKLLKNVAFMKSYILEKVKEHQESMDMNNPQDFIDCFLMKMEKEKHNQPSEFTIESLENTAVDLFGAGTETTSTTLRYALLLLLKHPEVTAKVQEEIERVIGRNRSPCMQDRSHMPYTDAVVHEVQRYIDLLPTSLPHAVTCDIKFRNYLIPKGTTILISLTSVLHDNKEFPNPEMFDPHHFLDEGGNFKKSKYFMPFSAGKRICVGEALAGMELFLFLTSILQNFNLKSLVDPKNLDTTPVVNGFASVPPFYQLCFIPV
Cytochrome P450 2C19, sequence (P33261 whole entry): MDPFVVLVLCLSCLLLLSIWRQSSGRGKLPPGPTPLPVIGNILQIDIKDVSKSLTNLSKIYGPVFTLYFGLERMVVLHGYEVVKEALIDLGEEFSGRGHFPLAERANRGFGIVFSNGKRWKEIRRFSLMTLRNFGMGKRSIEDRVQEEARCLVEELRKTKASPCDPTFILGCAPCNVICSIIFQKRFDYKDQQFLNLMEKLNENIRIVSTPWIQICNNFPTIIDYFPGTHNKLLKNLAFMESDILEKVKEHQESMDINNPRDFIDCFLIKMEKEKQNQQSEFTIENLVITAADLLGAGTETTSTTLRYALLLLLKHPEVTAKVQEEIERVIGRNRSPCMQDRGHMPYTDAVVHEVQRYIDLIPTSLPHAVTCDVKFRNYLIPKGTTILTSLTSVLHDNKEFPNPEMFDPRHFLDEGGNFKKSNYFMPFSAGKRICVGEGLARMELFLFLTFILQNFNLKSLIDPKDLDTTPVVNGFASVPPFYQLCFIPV

Structure (SMILES) | IC50 [2] | EC50 [3] | other results
CC(C)(C)C(=O)/C=C/Nc1ccccc1O |  |  | IC50 [1]: 3.27 µM (active)
Cc1ccc(S(=O)(=O)N2CCC(c3nc4c(nnn4Cc4ccccc4)c(=O)[nH]3)CC2)cc1 | > 47.1 µM (inactive) | > 53 µM (inactive) | 
COC(=O)C(OC(=O)c1ccccc1)C(C)Br (centres undefined) | > 47.1 µM (inactive) | > 53 µM (inactive) | 
CCOC(=O)CN(C#N)c1nc(N(C)C)nc(N(C)C)n1 |  |  | IC50 [1]: 26.9 µM (active)
CN(C)c1ncnc2c1N=C1CC(C)(C)CC(NCCCC(=O)O)=C1S2 | > 47.1 µM (inactive) | > 53 µM (inactive) | IC50 [4]: 78.8 µM (active)
O=C(COc1ccccc1)NCCSCc1ccc(Cl)cc1 |  |  | IC50 [1]: 22.2 µM (active)
Cc1cc2nc(-c3ccc(SCC(=O)N4CCc5ccccc54)nc3)[nH]c2cc1C |  |  | EC50 [5]: 6.92 µM (active); EC50 [6]: 7.55 µM (active); AC50 [7]: 3.16 µM (inconclusive)
CCCCOC(=O)c1ccc(NC(c2ccc(C)cc2)P(=O)(OC)OC)cc1 (centres undefined) | > 47.1 µM (inactive) | > 53 µM (inactive) | AC50 [8]: 30.8 µM (active)
Cc1nn(-c2ccc([N+](=O)[O-])cc2)c(N)c1-c1ccccc1 | > 47.1 µM (inactive) | > 53 µM (inactive) | 
COC(=O)c1ccc(/C(O)=C(\C#N)c2nc3ccccc3s2)cc1 | 3.93 µM (active) | > 53 µM (inactive) | 
CCOc1ccc(-n2c(=O)c3c4c(sc3n(CC(=O)NCc3ccco3)c2=O)CCC4)cc1 |  |  | EC50 [5]: 30.2 µM (active); EC50 [6]: 27.7 µM (active)
CCC/C(=N/CC(=O)O)C1=C(O)C(C(=O)OC)C(C)(C)CC1=O (centres undefined) | > 47.1 µM (inactive) | > 53 µM (inactive) | 
Cc1cccc2sc(NNC(=O)C3COc4ccccc4O3)nc12 (centres undefined) |  |  | EC50 [9]: > 195 µM (not active); EC50 [5]: 38.9 µM (active); EC50 [6]: 36.7 µM (active)
COc1cccc(OC(=O)c2cc3ccccc3oc2=O)c1 |  |  | IC50 [1]: > 50 µM (active)
CC1C(=O)C(C)C(c2cccs2)NC1c1cccs1 (centres undefined) | > 47.1 µM (inactive) | > 53 µM (inactive) | 
O=[N+]([O-])c1ccc(CN2CCN(c3ccccc3)CC2)o1 |  |  | IC50 [1]: 0.13 µM (active)
CC1=C(C(=O)Nc2ccccc2C)C(c2ccc(C)o2)n2c(s/c(=C/c3ccccc3)c2=O)=N1 (centres undefined) |  |  | EC50 [5]: 347 µM (active); EC50 [6]: 442 µM (active)
Cc1ccc(/C=C2\SC(N3CCCC3)=NC2=O)cc1 |  |  | IC50 [1]: 5.13 µM (active)
COc1ccc(/C=C2\CCC(C3CCCC3)C2=O)cc1OC (centres undefined) | > 47.1 µM (inactive) | > 53 µM (inactive) | 
CC(C)C(=O)Nc1cccc(-c2nc3ccccc3c(=O)o2)c1 |  |  | IC50 [1]: 20.7 µM (active)

Structure (SMILES) | IC50 [2] | EC50 [3] | other results
O=C(COC(=O)c1cc(Br)ccc1Cl)NC1CCCC1 |  |  | IC50 [1]: 18.2 µM (active)
CC(C)CCOP(=O)(c1ccc(N(C)C)cc1)C(Nc1ccccc1)c1ccc(N(C)C)cc1 (centres undefined) | > 47.1 µM (inactive) | > 53 µM (inactive) | 
O=C(OCc1c(Cl)cccc1Cl)c1ccccn1 |  |  | IC50 [1]: 10.6 µM (active)
CCOC(=O)c1c(C)[nH]c(C)c1C(=O)COC(=O)/C=C/c1ccc(Cl)cc1 | > 47.1 µM (inactive) | > 53 µM (inactive) | 
FC(F)(F)c1nnc2sc(-c3cccs3)nn12 | > 47.1 µM (inactive) | > 53 µM (inactive) | 
COc1cccc(C2C(C(=O)c3ccc(C)o3)=C(O)C(=O)N2CCN2CCOCC2)c1OC (centres undefined) | > 47.1 µM (inactive) | > 53 µM (inactive) | 
COc1ccc(N2C(=O)/C(=C\NNS(=O)(=O)c3ccc(C)cc3)c3ccccc3C2=O)cc1OC |  | > 53 µM (inactive) | EC50 [5]: 40.4 µM (active)
O=[N+]([O-])c1ccccc1C=NNC(=S)NN=Cc1ccccc1[N+](=O)[O-] | > 47.1 µM (inactive) | > 53 µM (inactive) | 
O=C(CC1CCCC1)OCn1nnc2ccccc2c1=O |  |  | IC50 [1]: 11.1 µM (active)
COc1ccc(C2CC(c3cccs3)=NN2C(=O)c2ccccc2)cc1OC (centres undefined) | > 47.1 µM (inactive) | > 53 µM (inactive) | 
c1ccc(C2=Nc3ccccc3OC2)cc1 |  |  | IC50 [1]: 7.95 µM (active)
CCc1nn2cc(C(=O)c3cc(Cl)ccc3O)cnc2c1-c1ccc(F)cc1 |  |  | EC50 [5]: 30.7 µM (active); EC50 [6]: 28.3 µM (active)
CN(C)c1ccc(/C=N/c2ccc(N(C)C)cc2)cc1 |  |  | EC50 [5]: 28.5 µM (active); EC50 [6]: 524 µM (active)
CCCN1CCN(C2CCCCC2NS(=O)(=O)c2ccc(Cl)cc2)CC1 (centres undefined) | > 47.1 µM (inactive) | > 53 µM (inactive) | 
CCN(CC(=O)Nc1ccc(OC)cc1)C(=O)c1cc(S(=O)(=O)N2CCOCC2)ccc1N1CCCC1 | > 47.1 µM (inactive) | > 53 µM (inactive) | 
CSCSC1=C(C#N)C(c2ccccc2Cl)C(C(C)=O)=C(C)N1 (centres undefined) | > 47.1 µM (inactive) | > 53 µM (inactive) | 
CC1CCN(C(=O)c2nc[nH]c2C(=O)N[C@@H](C)C(=O)OC(C)(C)C)CC1 | > 47.1 µM (inactive) | > 53 µM (inactive) | 
Cc1ccc(NC(=O)/C(=C\c2cccc([N+](=O)[O-])c2)NC(=O)c2cccs2)cc1 |  |  | EC50 [5]: 22.8 µM (active); EC50 [6]: 24.1 µM (active); AC50 [10]: 17.8 µM (inconclusive); AC50 [11]: 39.8 µM (inconclusive)
CCOc1ccc2ncc(S(=O)(=O)c3ccc(C)cc3)c(N3CCC4(CC3)OCCO4)c2c1 |  |  | EC50 [5]: 40.5 µM (active); EC50 [6]: 74 µM (active); EC50 [12]: > 260 µM (inactive)
